Data reported in US11918667B2, “Zirconium-based cluster as an antiperspirant and deodorant active” (Colgate-Palmolive Company, priority 2017, dated 2024).

Tests used:
[1] = pH of zirconium oxychloride / arginine solutions; assay type: physicochemical; settings: 1% zirconium oxychloride with varied arginine, 10 g samples, incubated 1 day at 50° C., cooled to room temperature
Description: Samples were prepared according to Table 1. Water was added to zirconium oxychloride (ZrOCl2.8H2O, MW 322.25) in a glass jar to yield a clear solution containing 1% zirconium oxychloride. Under stirring, L-arginine was slowly added to prevent clumping of arginine as well as large fluctuations in localized pH values. The solutions were incubated for 1 day at 50° C. Then the solutions were cooled to room temperature. Solid gel was formed in samples with the molar ratio of arginine to zirconium oxychloride of 2-4.
A 100 g batch was prepared according to Table 2. 1% w/w zirconium oxychloride (ZrOCl2.8H2O, MW 322.25) and arginine were mixed in aqueous solution with the molar ratio of arginine to zirconium oxychloride of 1:1.
The zirconium oxychloride cluster was prepared as described in Example 1. The prepared zirconium oxychloride cluster was purified by gel permeability chromatograph (GPC). GPC column was prepared using Bio-Rad P2 gel with 5 μm particle size. Approximately 10 mL of prepared solution was filtered (0.45 μm) and loaded on the column using a HPLC pump at 0.2 mL/min. The mobile phase of the GPC chromatography was deionized water. Elution fractions were collected in intervals and monitored using SEC-RI. […] The pH of the GPC fraction (1160-1300 min) was 4.5. […] 10 g of this fraction was freeze dried to obtain purified powder for subsequent PXRD analysis.

[2] = cited from earlier work

[Cl-].[Cl-].[O]=[Zr+2] [Zr, zirconium oxychloride]
pH [1]: 1.39
pH of solution ([2]; solution of zirconium oxychloride which is effective as an antiperspirant (background)): about 0.8
pH value ([2]; zirconium oxychloride alone (general statement)): < 2
